Measurements reported in paper PMC8781960, “Structural Basis of 2-Phenylamino-4-phenoxyquinoline Derivatives as Potent HIV-1 Non-Nucleoside Reverse Transcriptase Inhibitors” (Molecules, 2022).
Marks after values point to notes of the source that are not given here.

Columns and labels:
[1] = test system: HuCCA-1 (cholangiocarcinoma); assay: In vitro cytotoxicity (MTT); details: for %C percentage cytotoxicity HuCCA-1: at 50 µg/mL, inactive (IC50 ≥ 50 µg/mL); for IC50: Homo sapiens, HuCC-A1, 48 h, read-out: IC50 HuCCA-1
Description: (§1) Background control wells contained the same volume as the complete culture medium. […] Samples at various concentrations were added to the microplate and incubated for another 48 h. Cell viability was determined by 3(4,5-dimethylthiazol-2-yl)-2-5-diphenyl tetrazolium bromide (MTT) assay (Sig-ma-Aldrich). The reagent was dissolved in phosphate-buffered saline at 5 mg/mL and filtered to sterilize and remove the small amount of insoluble residue present in some batches of MTT. […] Subsequently, dimethyl sulfoxide (100 µL; Merck, Germany) was added to dissolve the resulting formazan by sonication. The plates were read on a microplate reader (Molecular Devices, CA, USA) using a test wavelength of 550 nm and a reference wavelength of 650 nm. XTT assay for suspension cells was used for MOLT-3 cells.

A549 (lung carcinoma) = assay: In vitro cytotoxicity (MTT); details: for %C percentage cytotoxicity A549: at 50 µg/mL, inactive (IC50 ≥ 50 µg/mL); for IC50: Homo sapiens, A549, 48 h, read-out: IC50 A549
Description: as §1

[2] = test system: MDA-MB-231 (hormone-independent breast cancer); assay: In vitro cytotoxicity (MTT); details: for IC50: Homo sapiens, MDA-MB-231, 48 h, read-out: IC50 MDA-MB-231; for %C percentage cytotoxicity MDA-MB-231: at 50 µg/mL, inactive (IC50 ≥ 50 µg/mL)
Description: as §1

HepG2 (hepatocarcinoma) = assay: In vitro cytotoxicity (MTT); details: for %C percentage cytotoxicity HepG2: at 50 µg/mL, inactive (IC50 ≥ 50 µg/mL); for IC50: Homo sapiens, HepG2, 48 h, read-out: IC50 HepG2
Description: as §1

S102 (Thai liver cancer) = assay: In vitro cytotoxicity (MTT); details: for %C percentage cytotoxicity S102: at 50 µg/mL, inactive (IC50 ≥ 50 µg/mL)
Description: as §1

HL-60 (promyeloblast) = assay: In vitro cytotoxicity (MTT); details: for %C percentage cytotoxicity HL-60: at 50 µg/mL, inactive (IC50 ≥ 50 µg/mL); for IC50: Homo sapiens, HL-60, 48 h, read-out: IC50 HL-60
Description: as §1

[3] = test system: T47-D (hormone-dependent breast cancer); assay: In vitro cytotoxicity (MTT); details: for %C percentage cytotoxicity T47-D: at 50 µg/mL, inactive (IC50 ≥ 50 µg/mL); for IC50: Homo sapiens, T47D, 48 h, read-out: IC50 T47-D
Description: as §1

[4] = test system: HeLA (cervical carcinoma); assay: In vitro cytotoxicity (MTT); details: for %C percentage cytotoxicity HeLA: at 50 µg/mL, inactive (IC50 ≥ 50 µg/mL); for IC50: Homo sapiens, HeLa, 48 h, read-out: IC50 HeLA
Description: as §1

[5] = test system: MRC-5 (normal embryonic lung cell); assay: In vitro cytotoxicity (MTT), normal cell line; details: for IC50: Homo sapiens, MRC5, 48 h, read-out: IC50 MRC-5; for %C percentage cytotoxicity MRC-5: normal cell line, at 50 µg/mL, inactive (IC50 ≥ 50 µg/mL)
Description: as §1

[6] = test system: H69AR (lung cancer, multidrug resistant); assay: In vitro cytotoxicity (MTT); format: cell-based, human; details: 48 h; for %C percentage cytotoxicity H69AR: human, 50 µg/mL; for IC50: Homo sapiens, H69AR, mean ± standard error
Description: Background control wells contained the same volume as the complete culture medium. […] The reagent was dissolved in phosphate-buffered saline at 5 mg/mL and filtered to sterilize and remove the small amount of insoluble residue present in some batches of MTT. […] Subsequently, dimethyl sulfoxide (100 µL; Merck, Germany) was added to dissolve the resulting formazan by sonication. The plates were read on a microplate reader (Molecular Devices, CA, USA) using a test wavelength of 550 nm and a reference wavelength of 650 nm.

HIV-1 RT = biological target: T1, HIV-1 RT (Human immunodeficiency virus type 1 group M subtype B, UniProt P03366); assay: HIV-1 RT inhibition assay (Roche RT kit, colorimetric ELISA); format: biochemical; details: for inhibition at 1 µM: read-out: Inhibitory activities (%) against HIV-1 RT
T1 construct: The reaction mixture consisted of template/primer complex, 2′-deoxy-nucleotide-5′-triphosphates (dNTPs), and RT enzyme in lysis buffer; purchased Roche Applied Science, Mannheim, Germany
Description: The inhibition assay of HIV-1 RT was accomplished using the template/primer hybrid poly(A) × oligo(dT)15, digoxigenin (DIG)- and biotin-labeled nucleotides, an antibody to DIG that was conjugated to peroxidase (anti-DIG-POD), and the peroxidase substrate ABTS. The quantities of DIG- and biotin-labeled dUTP incorporated into DNA represent t HIV-1 RT activity. The HIV-RT inhibition assay was implemented using an RT assay kit (Roche Applied Science, Mannheim, Germany), and the procedures for assaying RT inhibition were performed as described in the kit protocol. […] The reaction mixture consisted of template/primer complex, 2′-deoxy-nucleotide-5′-triphosphates (dNTPs), and RT enzyme in lysis buffer with or without an inhibitor. […] The biotin-labeled dNTPs that were incorporated in the template bound to streptavidin because of the presence of RT. Unbound dNTPs were washed using a wash buffer, and anti-DIG-POD was added to the MTP. The DIG-labeled dNTPs incorporated in the template bound to the anti-DIG-POD antibody. Unbound anti-DIG-POD was also washed elaborately five times using a wash buffer. Finally, the peroxide substrate (ABST) was added to the MTP. A colored reaction product emerged during the cleavage of the substrate catalyzed by […]. The absorbance of the sample was measured at the optical density (OD) at 490 nm using the MTP (enzyme-linked immunosorbent assay [ELISA]) reader. The percentage inhibitory activities of the RT inhibitors were calculated by comparing with that of the sample without an inhibitor. The resulting color intensity was directly proportional to the RT activity. Percentage inhibitory values were calculated using the following formula: Inhibition (%) = [1–(OD value with RT and inhibitor−OD value without RT and inhibitors)/(OD value without inhibitors with RT−OD value without RT and inhibitors)] × 100.

[7] = test system: MOLT-3 (acute lymphoblastic leukemia); assay: In vitro cytotoxicity (XTT); details: for %C percentage cytotoxicity MOLT-3: at 50 µg/mL, inactive (IC50 ≥ 50 µg/mL); for IC50: Homo sapiens, MOLT-3, 48 h, read-out: IC50 MOLT-3
Description: as §1

| Compound | %C percentage cytotoxicity HuCCA-1 [1] | %C percentage cytotoxicity A549 (A549 (lung carcinoma)) | IC50 [2] | %C percentage cytotoxicity S102 (S102 (Thai liver cancer)) | %C percentage cytotoxicity HL-60 (HL-60 (promyeloblast)) | %C percentage cytotoxicity T47-D [3] | %C percentage cytotoxicity HeLA [4] | melting point | IC50 [5] | %C percentage cytotoxicity H69AR [6] | inhibition at 1 µM (HIV-1 RT) | %C percentage cytotoxicity MOLT-3 [7] | IC50 [1] | IC50 (A549 (lung carcinoma)) | IC50 (HepG2 (hepatocarcinoma)) | IC50 [3] | %C percentage cytotoxicity MRC-5 [5] | IC50 (HL-60 (promyeloblast)) | IC50 [4] | IC50 [7] | also measured |
| --- | --- | --- | --- | --- | --- | --- | --- | --- | --- | --- | --- | --- | --- | --- | --- | --- | --- | --- | --- | --- | --- |
| N#Cc1ccc(Oc2cc(Oc3ccc(C#N)cc3)c3ccccc3n2)cc1 [Compound 4c, 2,4-di-(4′-cyanophenoxy)-quinoline] | %C = 15.0 ^c | %C = 12.0 ^c | 92.5 ± 4.2 µM | %C = 23.7 ^c | %C = 15.0 ^c | %C = 27.0 ^c | %C = 23.0 ^c | 220.9 to 221.5 °C | 108 ± 6.4 µM | %C = 21.0 ^c | 30.9 ± 1.8% | %C = 11.0 ^c | – | – | – | – | – | – | – | – | %C percentage cytotoxicity HepG2 (HepG2 (hepatocarcinoma)): %C = 41.4 ^c |
| Cc1cc(C#N)cc(C)c1Oc1cc(Oc2c(C)cc(C#N)cc2C)c2ccccc2n1 [Compound 4d, 2,4-di-(2′,6′-Dimethyl-4′-cyanophenoxy)-quinoline] | – | – | 92.5 ± 5 µM | %C = 31.5 ^c | %C = 23.0 ^c | – | %C = 40.0 ^c | 201.8 to 202.4 °C | – | %C = 38.0 ^c | 40.3 ± 3.3% | %C = 13.0 ^c | 83.5 ± 11.1 µM | 55.5 ± 5.7 µM | 92.2 ± 6.8 µM | 55.2 ± 1.5 µM | %C = 26.9 ^c | – | – | – | – |
| N#Cc1ccc(Nc2cc(Oc3ccc(C=O)cc3)c3ccccc3n2)nc1 [Compound 6a, 4-(4’-formylphenoxy)-2-(5″-cyanopyridin-2″ylamino)quinoline] | – | %C = 42.0 ^c | 68 ± 2 µM | %C = 31.7 ^c | – | – | – | 248 to 249 °C | 18.3 ± 3.9 µM | – | 19.4 ± 1.8% | – | 14.9 ± 1.1 µM | – | 23.7 ± 1 µM | 46.3 ± 0.2 µM | – | 15 ± 1.8 µM | 15.4 ± 0.8 µM | 5.13 ± 1.5 µM | IC50 [6]: 64.2 ± 2.5 µM |
| Cc1cc(C=O)cc(C)c1Oc1cc(Nc2ccc(C#N)cn2)nc2ccccc12 [Compound 6b, 4-(2’,6’-Dimethyl-4’-formylphenoxy)-2-(5″-cyanopyridin-2″ylamino)quinoline] | – | – | 103 ± 1.9 µM | – | – | %C = 38.0 ^c | – | 275.7 to 276.5 °C | – | %C = 21.0 ^c | 44.5 ± 2.8% | – | 126 ± 1.8 µM | 108 ± 1.2 µM | 92.8 ± 11.8 µM | – | %C = 26.1 ^c | 20.5 ± 2.1 µM | 25.7 ± 0.8 µM | 12.7 ± 1.1 µM | IC50 (S102 (Thai liver cancer); Homo sapiens, 48 h, read-out: IC50 S102): 112 ± 1.8 µM; cytotoxicity toward normal embryonic lung (MRC-5) cells, in words [5]: very low cytotoxicity; IC50 (HIV-1 RT): 1.93 µM |
| N#Cc1ccc(Oc2cc(Nc3ccc(C#N)cn3)nc3ccccc23)cc1 [Compound 6c, 4-(4′-cyanophenoxy)-2-(5″-cyanopyridin-2″ylamino)quinoline] | – | – | 66.6 ± 3 µM | %C = 44.8 ^c | %C = 9.0 ^c | – | – | 225.7 to 225.9 °C | 69.2 ± 12.4 µM | – | 27.6 ± 2.1% | – | 22.9 ± 0.9 µM | 14 ± 2.2 µM | 101.7 ± 0.7 µM | 47.1 ± 3.3 µM | – | – | 67.7 ± 0.6 µM | 14.1 ± 0.4 µM | IC50 [6]: 66.2 ± 2.4 µM |
| Cc1cc(C#N)cc(C)c1Oc1cc(Nc2ccc(C#N)cn2)nc2ccccc12 [Compound 6d, 4-(2′,6′-Dimethyl-4′-cyanophenoxy)-2-(5’’-cyanopyridin-2’’ylamino)quinoline] | %C = 0.0 ^c | %C = 8.0 ^c | – | %C = 0.0 ^c | %C = 13.0 ^c | %C = 1.0 ^c | %C = 0.0 ^c | 229.4 to 230.3 °C | – | %C = 0.0 ^c | 45.1 ± 1.5% | %C = 27.0 ^c | – | – | – | – | %C = 0.0 ^c | – | – | – | %C percentage cytotoxicity MDA-MB-231 [2]: %C = 8.3 ^c; %C percentage cytotoxicity HepG2 (HepG2 (hepatocarcinoma)): %C = 0.0 ^c; cytotoxicity toward normal embryonic lung (MRC-5) cells, in words [5]: no cytotoxicity; IC50 (HIV-1 RT): 1.22 µM |
| O=Cc1ccc(Oc2cc(-c3cc(Oc4ccc(C=O)cc4)c4ccccc4n3)nc3ccccc23)cc1 [Compound 7a, 4,4′-di-(4′-formylphenoxy)-2,2′-biquinoline] | – | – | 74.1 ± 5.3 µM | %C = 17.6 ^c | %C = 25.0 ^c | – | – | 288.7 to 289.3 °C | – | %C = 20.0 ^c | 22.9 ± 1.2% | – | 88.2 ± 4.4 µM | 69.5 ± 3.3 µM | 69.8 ± 11.8 µM | 96.1 ± 3.3 µM | %C = 33.9 ^c | – | 88 ± 4.3 µM | 74.2 ± 6.3 µM | – |
| N#Cc1ccc(Nc2cc(Oc3ccc(C=O)cc3)nc3ccccc23)cc1 [Compound 8a, 2-(4′-formylphenoxy)-4-(4″-cyanophenyl)-aminoquinoline] | – | – | 118 ± 5.8 µM | %C = 2.9 ^c | – | %C = 0.0 ^c | – | 238.5 to 238.9 °C | 119 ± 5.7 µM | %C = 8.4 ^c | 29.6 ± 2.7% | – | 22.7 ± 1.9 µM | 111 ± 5.6 µM | 85.3 ± 3.5 µM | – | – | 107 ± 1.4 µM | 112 ± 3.1 µM | 21.5 ± 3.3 µM | – |
| Cc1cc(C=O)cc(C)c1Oc1cc(Nc2ccc(C#N)cc2)c2ccccc2n1 [Compound 8b, 2-(2′,6′-Dimethyl-4′-formylphenoxy)-4-(4″-cyanophenyl)-aminoquinoline] | %C = 43.0 ^c | %C = 37.0 ^c | 107 ± 3.2 µM | %C = 0.0 ^c | – | %C = 38.0 ^c | – | 200 to 201.3 °C | – | %C = 6.0 ^c | 39.6 ± 1.5% | – | – | – | 106 ± 9.7 µM | – | %C = 9.7 ^c | 34.9 ± 5.1 µM | 42.3 ± 2.7 µM | 22.3 ± 1.9 µM | – |
| N#Cc1ccc(Nc2cc(Oc3ccc(C#N)cc3)nc3ccccc23)cc1 [Compound 8c, 2-(4′-cyanophenoxy)-4-(4″-cyanophenyl)-aminoquinoline] | %C = 25.8 ^c | %C = 29.0 ^c | – | %C = 0.0 ^c | %C = 1.0 ^c | %C = 35.0 ^c | %C = 0.0 ^c | 187.5 to 188 °C | – | %C = 21.0 ^c | 28.1 ± 3% | %C = 2.1 ^c | – | – | – | – | %C = 17.2 ^c | – | – | – | %C percentage cytotoxicity MDA-MB-231 [2]: %C = 0.0 ^c; %C percentage cytotoxicity HepG2 (HepG2 (hepatocarcinoma)): %C = 40.3 ^c |
